Experiments:
HCT-116 = test: Antitumor activity against human HCT-116 cells […] in mouse assessed as tumor growth inhibition at 50 mg/kg,sc administered for 5 weeks by 3 times a week; format: functional; details: HCT-116, 840 h
Cysteine protease ATG4B = biological target: T1, Cysteine protease ATG4B (Homo sapiens, UniProt Q9Y4P1); test: Inhibition of ATG4B (unknown origin) using proLC3B as substrate by FRET-LC3 assay
T1 sequence (Q9Y4P1 whole entry): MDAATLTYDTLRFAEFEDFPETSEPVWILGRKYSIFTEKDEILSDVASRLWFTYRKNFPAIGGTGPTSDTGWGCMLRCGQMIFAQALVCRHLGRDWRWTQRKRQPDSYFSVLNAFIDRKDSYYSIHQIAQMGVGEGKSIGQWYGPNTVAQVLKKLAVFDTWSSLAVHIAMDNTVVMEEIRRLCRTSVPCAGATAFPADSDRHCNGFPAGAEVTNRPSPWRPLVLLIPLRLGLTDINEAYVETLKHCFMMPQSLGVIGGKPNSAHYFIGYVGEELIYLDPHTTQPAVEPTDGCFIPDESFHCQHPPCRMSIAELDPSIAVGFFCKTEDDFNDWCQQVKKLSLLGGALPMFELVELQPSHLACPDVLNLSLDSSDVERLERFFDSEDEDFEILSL

| Compound | inhibition in vivo at 50 mg/kg (HCT-116) [%] | IC50 (Cysteine protease ATG4B) [µM] |
| --- | --- | --- |
| COc1ccc(Nc2cc(C)nc(Nc3ccc(-c4cc5ccccc5o4)cc3)n2)cc1 | 75 |  |
| O=C(N[C@@H](Cc1ccccc1)C(=O)CCl)OCc1ccccc1 |  | 3.3 |
| Cc1cc(O)c2c(=O)c3c(O)cc(O)c4c5c(O)cc(O)c6c(=O)c7c(O)cc(C)c8c1c2c(c34)c(c78)c65 [HYPERICIN] |  | 8.9 |
